Measured values as given in ChEMBL document CHEMBL1201861, “Genomics of Drug Sensitity in Cancer screening data, Wellcome Trust Sanger Institute”.

How the values were obtained:
SAS = assay: cells; type: functional, cell-based; settings: Homo sapiens;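 note: growth inhibition of SAS cells, read out with a cell viability assay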
Description: SANGER: Inhibition of human SAS cell growth in a cell viability assay.

NCI-H524 = assay: cells; type: functional, cell-based, Homo sapiens; settings: Homo sapiens, NCI-H524;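 note: growth inhibition of human NCI-H524 cells, read out through a cell viability assay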
Description: SANGER: Inhibition of human NCI-H524 cell growth in a cell viability assay.

OE33 = assay: cells; type: functional, cell-based; settings: Homo sapiens;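 note: growth inhibition of human OE33 cells, measured by a cell viability assay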
Description: SANGER: Inhibition of human OE33 cell growth in a cell viability assay.

HO-1-N-1 = assay: cells; type: functional, cell-based; settings: Homo sapiens;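 note: growth inhibition of human HO-1-N-1 cells, read out with a cell viability assay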
Description: SANGER: Inhibition of human HO-1-N-1 cell growth in a cell viability assay.

KOSC-2 = assay: cells; type: functional, cell-based; settings: Homo sapiens;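 note: growth inhibition of KOSC-2 cells, read out by a cell viability assay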
Description: SANGER: Inhibition of human KOSC-2 cell growth in a cell viability assay.

RVH-421 = assay: cells; type: functional, cell-based; settings: Homo sapiens
Description: SANGER: Inhibition of human RVH-421 cell growth in a cell viability assay.

SU-DHL-1 = assay: SANGER: Inhibition of human SU-DHL-1 cell growth in a cell viability assay.; type: functional, cell-based; settings: Homo sapiens, SU-DHL-1
EB2 = assay: cells; type: functional, cell-based, Homo sapiens; settings: Homo sapiens, EB2;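 note: growth inhibition of EB2 cells, read out with a cell viability assay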
Description: SANGER: Inhibition of human EB2 cell growth in a cell viability assay.

NALM-6 = assay: cells; type: functional, cell-based, Homo sapiens; settings: Homo sapiens, NALM-6;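 note: growth inhibition of NALM-6 cells, read out with a cell viability assay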
Description: SANGER: Inhibition of human NALM-6 cell growth in a cell viability assay.

NCI-H2196 = assay: cells; type: functional, cell-based, Homo sapiens; settings: Homo sapiens, NCI-H2196; read-out: IC50;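 note: cell viability assay used as the readout of growth inhibition in NCI-H2196 cells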
Description: SANGER: Inhibition of human NCI-H2196 cell growth in a cell viability assay.

NCI-H292 = assay: cells; type: functional, cell-based; settings: Homo sapiens;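 note: growth inhibition of NCI-H292 cells, read out with a cell viability assay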
Description: SANGER: Inhibition of human NCI-H292 cell growth in a cell viability assay.

HC-1 = assay: cells; type: functional, cell-based, Homo sapiens; settings: Homo sapiens, HC-1;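 note: growth inhibition of HC-1 cells measured by a cell viability assay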
Description: SANGER: Inhibition of human HC-1 cell growth in a cell viability assay.

BFTC-905 = assay: cells; type: functional, cell-based; settings: Homo sapiens
Description: SANGER: Inhibition of human BFTC-905 cell growth in a cell viability assay.

Calu-3 = assay: cells; type: functional, cell-based; settings: Homo sapiens;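 note: growth inhibition of human Calu-3 cells, determined with a cell viability assay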
Description: SANGER: Inhibition of human Calu-3 cell growth in a cell viability assay.

HCC1954 = assay: cells; type: functional, cell-based; settings: Homo sapiens;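 note: growth inhibition of human HCC1954 cells, read out with a cell viability assay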
Description: SANGER: Inhibition of human HCC1954 cell growth in a cell viability assay.

GDM-1 = assay: cells; type: functional, cell-based, Homo sapiens; settings: Homo sapiens, GDM-1; read-out: IC50;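 note: cell viability readout used to measure growth inhibition of human GDM-1 cells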
Description: SANGER: Inhibition of human GDM-1 cell growth in a cell viability assay.

NCI-H661 = assay: cells; type: functional, cell-based; settings: Homo sapiens;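 note: cell viability assay read-out, IC50 being the concentration that inhibits growth of the cells by half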
Description: SANGER: Inhibition of human NCI-H661 cell growth in a cell viability assay.

KYSE-520 cell line = assay: cells; type: functional, cell-based; settings: Homo sapiens;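 note: growth inhibition of human KYSE-520 cells, read out with a viability assay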
Description: SANGER: Inhibition of human KYSE-520 cell growth in a cell viability assay.

HOS = assay: cells; type: functional, cell-based; settings: Homo sapiens;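 note: growth inhibition of human HOS cells, read out with a cell viability assay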
Description: SANGER: Inhibition of human HOS cell growth in a cell viability assay.

HCC1599 = assay: cells; type: functional, cell-based, Homo sapiens; settings: Homo sapiens, HCC1599;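 note: growth inhibition of HCC1599 cells, read out in a cell viability assay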
Description: SANGER: Inhibition of human HCC1599 cell growth in a cell viability assay.

A204 = assay: cells; type: functional, cell-based; settings: Homo sapiens;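 note: growth inhibition of human A204 cells, read out with a cell viability assay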
Description: SANGER: Inhibition of human A204 cell growth in a cell viability assay.

LK-2 = assay: cells; type: functional, cell-based; settings: Homo sapiens;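 note: growth inhibition of LK-2 cells, read out with a viability assay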
Description: SANGER: Inhibition of human LK-2 cell growth in a cell viability assay.

VM-CUB-1 = assay: cells; type: functional, cell-based; settings: Homo sapiens;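 note: cell viability assay measuring growth inhibition of the human VM-CUB-1 cell line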
Description: SANGER: Inhibition of human VM-CUB-1 cell growth in a cell viability assay.

PF-382 = assay: cells; type: functional, cell-based, Homo sapiens; settings: Homo sapiens, PF-382
Description: SANGER: Inhibition of human PF-382 cell growth in a cell viability assay.

HCC1419 = assay: cells; type: functional, cell-based; settings: Homo sapiens;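 note: growth inhibition of human HCC1419 cells, read out as cell viability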
Description: SANGER: Inhibition of human HCC1419 cell growth in a cell viability assay.

Capan-2 = assay: cells; type: functional, cell-based; settings: Homo sapiens;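 note: Capan-2 cell growth inhibition, read out with a viability assay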
Description: SANGER: Inhibition of human Capan-2 cell growth in a cell viability assay.

SW1990 = assay: cells; type: functional, cell-based; settings: Homo sapiens
Description: SANGER: Inhibition of human SW1990 cell growth in a cell viability assay.

T84 = assay: cells; type: functional, cell-based; settings: Homo sapiens;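 note: growth inhibition measured with a cell viability readout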
Description: SANGER: Inhibition of human T84 cell growth in a cell viability assay.

UACC-62 = assay: cells; type: functional, cell-based; settings: Homo sapiens;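 note: growth inhibition of human UACC-62 cells, read out by a cell viability assay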
Description: SANGER: Inhibition of human UACC-62 cell growth in a cell viability assay.

5637 = assay: cells; type: functional, cell-based; settings: Homo sapiens
Description: SANGER: Inhibition of human 5637 cell growth in a cell viability assay.

BCPAP = assay: cells; type: functional, cell-based; settings: Homo sapiens;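 note: growth inhibition of BCPAP cells, read out in a cell viability assay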
Description: SANGER: Inhibition of human BCPAP cell growth in a cell viability assay.

HSC-4 = assay: cells; type: functional, cell-based; settings: Homo sapiens;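 note: growth inhibition of human HSC-4 cells, read out with a cell viability assay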
Description: SANGER: Inhibition of human HSC-4 cell growth in a cell viability assay.

SCC-9 = assay: cells; type: functional, cell-based; settings: Homo sapiens;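 note: Read-out is a cell viability assay, with values giving inhibition of cell growth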
Description: SANGER: Inhibition of human SCC-9 cell growth in a cell viability assay.

A2780 = assay: cells; type: functional, cell-based; settings: Homo sapiens;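 note: growth inhibition of A2780 cells, read out with a cell viability assay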
Description: SANGER: Inhibition of human A2780 cell growth in a cell viability assay.

NCI-H358 = assay: cells; type: functional, cell-based; settings: Homo sapiens;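 note: growth inhibition of NCI-H358 human cells, read out with a cell viability assay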
Description: SANGER: Inhibition of human NCI-H358 cell growth in a cell viability assay.

769-P = assay: cells; type: functional, cell-based; settings: Homo sapiens
Description: SANGER: Inhibition of human 769-P cell growth in a cell viability assay.

J82 = assay: cells; type: functional, cell-based; settings: Homo sapiens;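 note: growth inhibition of J82 cells, read out with a cell viability assay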
Description: SANGER: Inhibition of human J82 cell growth in a cell viability assay.

NCI-H28 = assay: cells; type: functional, cell-based; settings: Homo sapiens;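 note: growth inhibition of human NCI-H28 cells, read out as cell viability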
Description: SANGER: Inhibition of human NCI-H28 cell growth in a cell viability assay.

SW837 = assay: cells; type: functional, cell-based; settings: Homo sapiens;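 note: growth inhibition of SW837 cells, determined with a cell viability assay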
Description: SANGER: Inhibition of human SW837 cell growth in a cell viability assay.

NCI-H1793 = assay: cells; type: functional, cell-based; settings: Homo sapiens;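 note: cell growth inhibition, read out by a cell viability assay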
Description: SANGER: Inhibition of human NCI-H1793 cell growth in a cell viability assay.

HCT-116 = assay: cells; type: functional, cell-based; settings: Homo sapiens
Description: SANGER: Inhibition of human HCT-116 cell growth in a cell viability assay.

SN12C = assay: cells; type: functional, cell-based; settings: Homo sapiens;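 note: growth inhibition of human SN12C cells, measured by a cell viability assay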
Description: SANGER: Inhibition of human SN12C cell growth in a cell viability assay.

ABC-1 = assay: cells; type: functional, cell-based; settings: Homo sapiens;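 note: growth inhibition of human ABC-1 cells, read out by a cell viability assay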
Description: SANGER: Inhibition of human ABC-1 cell growth in a cell viability assay.

NCI-H1882 = assay: cells; type: functional, cell-based, Homo sapiens; settings: Homo sapiens, NCI-H1882;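 note: growth inhibition of the cell line, determined with a viability assay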
Description: SANGER: Inhibition of human NCI-H1882 cell growth in a cell viability assay.

A-375 = assay: cells; type: functional, cell-based; settings: Homo sapiens;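 note: growth inhibition of A375 cells, read out with a cell viability assay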
Description: SANGER: Inhibition of human A375 cell growth in a cell viability assay.

TCC-SUP = assay: cells; type: functional, cell-based; settings: Homo sapiens;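 note: growth inhibition of TCC-SUP cells, read out with a cell viability assay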
Description: SANGER: Inhibition of human TCCSUP cell growth in a cell viability assay.

SCLC-21H = assay: cells; type: functional, cell-based, Homo sapiens; settings: Homo sapiens, SCLC-21H;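 note: growth inhibition of cultured human SCLC-21H cells, read out with a cell viability assay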
Description: SANGER: Inhibition of human SCLC-21H cell growth in a cell viability assay.

NCI-H1792 = assay: cells; type: functional, cell-based; settings: Homo sapiens;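 note: growth inhibition of human NCI-H1792 cells, read out as cell viability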
Description: SANGER: Inhibition of human NCI-H1792 cell growth in a cell viability assay.

NCI-H460 = assay: cells; type: functional, cell-based; settings: Homo sapiens;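 note: cell viability assay scoring growth inhibition of human NCI-H460 cells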
Description: SANGER: Inhibition of human NCI-H460 cell growth in a cell viability assay.

KYSE-150 cell line = assay: cells; type: functional, cell-based; settings: Homo sapiens;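 note: growth inhibition of human KYSE-150 cells, read out with a cell viability assay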
Description: SANGER: Inhibition of human KYSE-150 cell growth in a cell viability assay.

MHH-ES-1 = assay: cells; type: functional, cell-based; settings: Homo sapiens
Description: SANGER: Inhibition of human MHH-ES-1 cell growth in a cell viability assay.

CAL-27 = assay: cells; type: functional, cell-based; settings: Homo sapiens;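 note: Viability-based readout, IC50 reflecting inhibition of CAL-27 cell growth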
Description: SANGER: Inhibition of human CAL-27 cell growth in a cell viability assay.

HMV-2 cell line = assay: cells; type: functional, cell-based; settings: Homo sapiens;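 note: growth inhibition of HMV-II cells, read out with a cell viability assay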
Description: SANGER: Inhibition of human HMV-II cell growth in a cell viability assay.

NCI-H522 = assay: cells; type: functional, cell-based; settings: Homo sapiens;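 note: cell viability assay measuring growth inhibition of human NCI-H522 cells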
Description: SANGER: Inhibition of human NCI-H522 cell growth in a cell viability assay.

NCI-H1651 = assay: cells; type: functional, cell-based; settings: Homo sapiens;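 note: Read-out is a cell viability assay, with IC50 expressing inhibition of NCI-H1651 cell growth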
Description: SANGER: Inhibition of human NCI-H1651 cell growth in a cell viability assay.

OVCAR-8 = assay: cells; type: functional, cell-based; settings: Homo sapiens;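 note: growth inhibition of human OVCAR-8 cells, read out by a cell viability assay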
Description: SANGER: Inhibition of human OVCAR-8 cell growth in a cell viability assay.

SK-N-AS = assay: cells; type: functional, cell-based; settings: Homo sapiens;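 note: growth inhibition of human SK-N-AS cells, measured with a cell viability assay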
Description: SANGER: Inhibition of human SK-N-AS cell growth in a cell viability assay.

NCI-H2087 = assay: cells; type: functional, cell-based; settings: Homo sapiens;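 note: growth inhibition determined with a cell viability readout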
Description: SANGER: Inhibition of human NCI-H2087 cell growth in a cell viability assay.

RL95-2 = assay: cells; type: functional, cell-based, Homo sapiens; settings: Homo sapiens, RL95-2;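 note: RL95-2 growth inhibition determined through a cell viability readout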
Description: SANGER: Inhibition of human RL95-2 cell growth in a cell viability assay.

Kasumi 1 = assay: cells; type: functional, cell-based, Homo sapiens; settings: Homo sapiens, Kasumi 1
Description: SANGER: Inhibition of human KASUMI-1 cell growth in a cell viability assay.

C/C(=C\c1csc(C)n1)[C@@H]1C[C@@H]2O[C@]2(C)CCC[C@H](C)[C@H](O)[C@@H](C)C(=O)C(C)(C)[C@@H](O)CC(=O)O1 [PATUPILONE]
IC50 (SAS): > 32 nM | IC50 (NCI-H524): 23.1 nM | IC50 (OE33): 7.63 nM | IC50 (HO-1-N-1): 1.66 nM | IC50 (KOSC-2): 2.83 nM | IC50 (RVH-421): 14.3 nM | IC50 (SU-DHL-1): > 32 nM | IC50 (EB2): 3.69 nM | IC50 (NALM-6): 2.18 nM | IC50 (NCI-H2196): > 32 nM | IC50 (NCI-H292): 1.42 nM | IC50 (HC-1): 3.98 nM | IC50 (BFTC-905): 0.0499 nM | IC50 (Calu-3): 1.68 nM | IC50 (HCC1954): 9.19 nM | IC50 (GDM-1): 4.31 nM | IC50 (NCI-H661): 30.1 nM | IC50 (KYSE-520 cell line): 10.4 nM | IC50 (HOS): 0.215 nM | IC50 (HCC1599): 11.9 nM | IC50 (A204): 3.12 nM | IC50 (LK-2): 4.86 nM | IC50 (VM-CUB-1): 3.09 nM | IC50 (PF-382): 8.68 nM | IC50 (HCC1419): > 32 nM | IC50 (Capan-2): 30 nM | IC50 (SW1990): > 32 nM | IC50 (T84): 0.24 nM | IC50 (UACC-62): > 32 nM | IC50 5637: 0.638 nM | IC50 (BCPAP): 0.581 nM | IC50 (HSC-4): 29.9 nM | IC50 (SCC-9): > 32 nM | IC50 (A2780): 2.09 nM | IC50 (NCI-H358): 2.48 nM | IC50 (769-P): 0.753 nM | IC50 (J82): 1.41 nM | IC50 (NCI-H28): 22 nM | IC50 (SW837): 2.47 nM | IC50 (NCI-H1793): 21 nM | IC50 (HCT-116): 4.69 nM | IC50 (SN12C): 9.39 nM | IC50 (ABC-1): 1.68 nM | IC50 (NCI-H1882): > 32 nM | IC50 (A-375): 0.05 nM | IC50 (TCC-SUP): 4.5 nM | IC50 (SCLC-21H): 7.59 nM | IC50 (NCI-H1792): 8.28 nM | IC50 (NCI-H460): 0.333 nM | IC50 (KYSE-150 cell line): 0.499 nM | IC50 (MHH-ES-1): 0.893 nM | IC50 (CAL-27): 1.39 nM | IC50 (HMV-2 cell line): 0.394 nM | IC50 (NCI-H522): 0.635 nM | IC50 (NCI-H1651): 3.71 nM | IC50 (OVCAR-8): 1.06 nM | IC50 (SK-N-AS): > 32 nM | IC50 (NCI-H2087): 3.11 nM

Cc1ccc(C(=O)Nc2ccc(CN3CCN(C)CC3)c(C(F)(F)F)c2)cc1C#Cc1cnc2cccnn12 [PONATINIB]
IC50 (SAS): > 512 nM | IC50 (NCI-H524): > 512 nM | IC50 (OE33): > 512 nM | IC50 (RL95-2): > 512 nM | IC50 (HO-1-N-1): > 512 nM | IC50 (KOSC-2): > 512 nM | IC50 (RVH-421): > 512 nM | IC50 (SU-DHL-1): 63.8 nM | IC50 (EB2): 55.8 nM | IC50 (NALM-6): 255 nM | IC50 (NCI-H2196): > 512 nM | IC50 (NCI-H292): > 512 nM | IC50 (HC-1): > 512 nM | IC50 (BFTC-905): > 512 nM | IC50 (Calu-3): > 512 nM | IC50 (HCC1954): > 512 nM | IC50 (GDM-1): 18.3 nM | IC50 (NCI-H661): > 512 nM | IC50 (KYSE-520 cell line): > 512 nM | IC50 (HOS): 504 nM | IC50 (HCC1599): > 512 nM | IC50 (A204): 12.2 nM | IC50 (LK-2): > 512 nM | IC50 (VM-CUB-1): > 512 nM | IC50 (PF-382): 209 nM | IC50 (HCC1419): > 512 nM | IC50 (Capan-2): > 512 nM | IC50 (SW1990): > 512 nM | IC50 (T84): > 512 nM | IC50 (UACC-62): > 512 nM | IC50 5637: > 512 nM | IC50 (BCPAP): 360 nM | IC50 (HSC-4): > 512 nM | IC50 (SCC-9): > 512 nM | IC50 (A2780): 343 nM | IC50 (NCI-H358): > 512 nM | IC50 (769-P): > 512 nM | IC50 (Kasumi 1): 2.17 nM | IC50 (J82): > 512 nM | IC50 (NCI-H28): > 512 nM | IC50 (SW837): > 512 nM | IC50 (NCI-H1793): > 512 nM | IC50 (HCT-116): 211 nM | IC50 (SN12C): > 512 nM | IC50 (ABC-1): > 512 nM | IC50 (NCI-H1882): > 512 nM | IC50 (A-375): > 512 nM | IC50 (SCLC-21H): > 512 nM | IC50 (NCI-H1792): > 512 nM | IC50 (NCI-H460): > 512 nM | IC50 (KYSE-150 cell line): 424 nM | IC50 (MHH-ES-1): > 512 nM | IC50 (CAL-27): > 512 nM | IC50 (HMV-2 cell line): > 512 nM | IC50 (NCI-H522): 453 nM | IC50 (NCI-H1651): > 512 nM | IC50 (OVCAR-8): > 512 nM | IC50 (SK-N-AS): > 512 nM | IC50 (NCI-H2087): 204 nM
